Source: publication PMC11359809, “Probing the molecular basis for signal transduction through the Zinc-Activated Channel (ZAC)” (Biochemical pharmacology, 2021)

What was measured:
Type in all cases: cell-based
m5-HT3A/ZAC = molecular target: T1, m5-HT3A/ZAC (Mus musculus / Homo sapiens, UniProt P23979); assay: TEVC in oocytes expressing m5-HT3A/ZAC chimera
T1 sequence (P23979 24-246): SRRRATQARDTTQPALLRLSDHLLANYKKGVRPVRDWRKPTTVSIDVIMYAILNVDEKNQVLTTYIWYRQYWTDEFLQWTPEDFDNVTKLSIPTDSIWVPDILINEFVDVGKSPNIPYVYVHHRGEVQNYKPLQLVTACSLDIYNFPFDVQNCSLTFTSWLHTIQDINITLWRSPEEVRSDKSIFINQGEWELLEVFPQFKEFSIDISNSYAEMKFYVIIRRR
T1 sequence (Q401N2 231-412 partner): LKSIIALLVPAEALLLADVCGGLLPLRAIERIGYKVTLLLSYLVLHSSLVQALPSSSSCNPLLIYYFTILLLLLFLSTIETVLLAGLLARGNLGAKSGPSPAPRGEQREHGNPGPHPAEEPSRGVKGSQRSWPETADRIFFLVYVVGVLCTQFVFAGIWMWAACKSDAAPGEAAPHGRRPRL
Excerpt: The construction of the ZAC-pUNIV plasmid (encoding for the human WT ZAC that contains a Thr in position 128) has been described previously. The m5-HT3A and hα1 GlyR cDNAs were subcloned from their original vectors into pUNIV (Addgene, Watertown, MA) using NheI and EcoRI as restriction enzymes. […] The C-terminus modifications in these four chimeras were introduced in their cDNAs in the same way. Point mutations were introduced in cDNAs by use of the QuikChange mutagenesis kit (Stratagene, San Diego, CA). The validity and absence of unwanted mutations in the constructed cDNAs was verified by DNA sequencing (Macrogen Europe, Amsterdam, The Netherlands).
All cDNAs used for cRNA synthesis were inserted in the pUNIV vector. The cDNAs were linearized and subsequently transcribed and capped using the mMessage mMachine T7 RNA transcription kit (Ambion, Waltham, MA). […] Oocytes were incubated in a sterile modified Barth’s solution [88 mM NaCl, 1 mM KCl, 15 mM HEPES (pH 7.5), 2.4 mM NaHCO3, 0.41 mM CaCl2, 0.82 mM MgSO4, 0.3 mM Ca(NO3)2, 100 U/ml penicillin and 100 μg/ml streptomycin] at 16–18 °C. Based on experience gained with WT ZAC in a recent study, all TEVC recordings were performed two days after cRNA injection.
On the day of the TEVC recording, all compound dilutions were prepared in a saline solution [115 mM NaCl, 2.5 mM KCl, 10 mM MOPS (pH 7.5), 1.8 mM CaCl2, 0.1 mM MgCl2], and pH was adjusted to 7.5 (if needed). Oocytes were placed in a recording chamber continuously perfused with this saline solution, and the compounds were applied in the perfusate. Both voltage and current electrodes were agar-plugged with 3 M KCl with a resistance of 0.2–2.0 MΩ. Oocytes were voltage-clamped at −50 mV (except in the studies of the chimeras and their parent receptors where they were clamped at −60 mV, section 3.1), by a Gene Clamp 500B amplifier, and current signals were digitized by a Digidata 1322A (both from Axon Instruments, Union City, CA). Currents were recorded using pCLAMP 10 (Molecular Devices, Sunnyvale, CA). The recordings were performed at room temperature.
In all recordings, compounds or compound combinations were applied in the bath until the peak current decayed to a steady state (up to 30 s). […] The antagonist properties of compounds were determined by pre-application of the compound to the perfusate for 30 s followed by co-application of the compound and the agonist. In all recordings, washes of 1–5 min were executed between the ligand applications, the length of the washes depending on the agonist concentrations used and on the return to baseline current amplitude.
(§1) Analysis of the data from the TEVC recordings were performed using Clampfit software version 10.5 (Molecular Devices, Crawley, UK) and GraphPad Prism version 7.0c (GraphPad Software, La Jolla, CA). Unless otherwise stated, the inward currents induced by agonists in oocytes were normalized to the maximal response elicited by a specific agonist (agonist Imax) on each oocyte. Concentration-response and concentration-inhibition curves were fitted in GraphPad Prism by nonlinear regression using the equation for sigmoidal dose-response with variable slope. Each data point represents the mean ± S.E.M. value of recordings performed on at least five oocytes in total from at least two different batches. For the data where statistical analysis was performed, a one-way ANOVA was used. The null hypothesis was rejected at P < 0.05, and the differences between the means were analyzed by Tukey’s multiple comparisons test.

ZAC^L9′I = molecular target: T2, ZAC^L9′I (Homo sapiens, UniProt Q401N2, A152T/L270I); assay: TEVC in oocytes, ZAC L9′I mutant; conditions: agonist; n = 8
T2 construct: expressed in transfected cells; host or cells: Xenopus oocytes (cRNA injection, pUNIV vector)
T2 sequence (Q401N2 26-412 A152T/L270I): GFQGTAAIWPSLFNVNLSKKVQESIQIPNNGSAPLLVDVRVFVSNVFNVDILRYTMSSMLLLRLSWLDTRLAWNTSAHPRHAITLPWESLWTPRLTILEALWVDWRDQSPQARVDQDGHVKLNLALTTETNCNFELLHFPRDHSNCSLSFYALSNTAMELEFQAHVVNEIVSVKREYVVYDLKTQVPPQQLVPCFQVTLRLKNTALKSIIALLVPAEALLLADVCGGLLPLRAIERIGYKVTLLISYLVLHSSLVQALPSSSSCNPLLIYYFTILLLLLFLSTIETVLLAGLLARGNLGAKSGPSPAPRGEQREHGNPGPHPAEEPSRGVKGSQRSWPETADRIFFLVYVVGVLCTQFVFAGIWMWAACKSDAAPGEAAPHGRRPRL
Method: (§2) The recordings were performed at room temperature.
as §1

ZAC^H79A/H82A/H120F = molecular target: T3, ZAC^H79A/H82A/H120F (Homo sapiens, UniProt Q401N2, A152T/H103A/H106A/H144F); assay: TEVC in oocytes, ZAC H79A/H82A/H120F mutant; conditions: parallel recordings, same oocyte batches
T3 construct: expressed in transfected cells; host or cells: Xenopus oocytes (cRNA injection, pUNIV vector)
Method: as §2
as §1, with “For the data where statistical analysis was performed, a one-way ANOVA was used.” left out
(§3) The putative involvement of candidate residues in Clusters 1, 2, 3 and 4 in Zn^2+ binding to ZAC was investigated in by an elaborate alanine mutagenesis scanning. […] The determined IpH 4.0 value was used in part as a control and in part to enable the distinction of ZAC mutants non-responsive to Zn^2+ due to elimination of their ability to bind the metal ion from those where the mutation had eliminated cell surface expression and/or disrupted overall functionality of the receptor complex. […]

ZAC^E130A = molecular target: T4, ZAC^E130A (Homo sapiens, UniProt Q401N2, A152T/E154A); assay: TEVC in oocytes, ZAC E130A mutant
T4 construct: expressed in transfected cells; host or cells: Xenopus oocytes (cRNA injection, pUNIV vector)
Method: as §2
as §1, with “For the data where statistical analysis was performed, a one-way ANOVA was used.” left out
as §3

T3 sequence (Q401N2 26-412 H103A/H106A/H144F/A152T): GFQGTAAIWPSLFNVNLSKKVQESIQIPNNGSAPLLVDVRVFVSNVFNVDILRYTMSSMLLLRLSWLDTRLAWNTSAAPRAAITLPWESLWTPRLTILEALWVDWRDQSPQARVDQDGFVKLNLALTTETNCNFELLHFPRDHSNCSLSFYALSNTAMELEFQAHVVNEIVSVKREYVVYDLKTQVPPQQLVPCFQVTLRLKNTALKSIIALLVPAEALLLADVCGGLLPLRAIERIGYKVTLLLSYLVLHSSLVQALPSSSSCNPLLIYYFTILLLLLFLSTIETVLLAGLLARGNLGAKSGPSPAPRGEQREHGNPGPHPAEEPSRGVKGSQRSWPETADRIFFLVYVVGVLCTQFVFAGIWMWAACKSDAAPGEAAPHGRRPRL
T4 sequence (Q401N2 26-412 A152T/E154A): as the sequence (Q401N2 26-412 H103A/H106A/H144F/A152T) above, with A78H, A81H, F119H, E129A counted along it

Structure (SMILES): [Cl-].[Cl-].[Zn+2] [Zn^2+, ZnCl2]
- I10 mM Zn2+ ± S.E.M. (m5-HT3A/ZAC; 10 mM Zn^2+, n = 4): 0.0037 ± 0.0013 μA
- modulation of 5-HT (EC80)-evoked currents (m5-HT3A/ZAC; 5-HT 1 μM): monophasic concentration-inhibition relationship
- EC50 (ZAC^L9′I): 24 µM
- nH ± S.E.M. (Hill slope) (ZAC^L9′I): 0.8 ± 0.2
- pEC50 ± S.E.M. (ZAC^L9′I): 4.62 ± 0.15
- ability to elicit ZAC signalling compared to WT ZAC (ZAC^H79A/H82A/H120F): did not appear to impair
- concentration-response relationship compared to WT ZAC (ZAC^E130A): did not differ significantly
